Columns and labels:
[1] = system: isolate 205y; assay: Growth of isolate 205y in different organic solvents and concentrations; type: cell-based, Bacillus sphaericus 205y; set-up: Growth of isolate 205y: key to the marks not given beside the values; conditions: for Growth of isolate 205y: growth visually determined
Experimental: The Bacillus sphaericus 205y culture could be obtained from Enzyme and Microbial Technology Research Department of Biochemistry and Microbiology, Faculty of Science and Environmental Studies, University Putra Malaysia. One gram of soil is resuspended in 10 ml basal mineral […] supplemented with selected hydrocarbon (0.1% v/v). The basal media contained (w/v) K2HPO4 0.5%, NH4Cl (1.0%), Na2SO4 (2%), KNO3 (2%), MgSO4.7H2O (0.2%).
Selected hydrocarbons would either be benzene, toluene or mixture of both as their sole carbon and energy source. Pure isolates were prescreened in media spiked with 1% v/v hydrocarbon. Isolates were grouped into groups of good, moderate, acceptable and negative, based on the turbidity of the media (Inoue et al., 1989). Non-inoculated controls were also used to ensure that the turbidity is due to growth.

[2] = system: recombinant lipase (Bacillus sphaericus 205y lipase expressed in E. coli); assay: Effect of organic solvents on crude recombinant lipase activity (organic solvent-tolerant test); type: biochemical; conditions: for Relative activity (%) at concentration of 25%: 25% (v/v) solvent (1 ml solvent/3 ml crude enzyme), 30 min, 37° C., shaking, relative to non-solvent control
Experimental: The mixture is allowed to stand still for 20-30 seconds until the aqueous phase was sedimented clearly from the solution of isooctane and fatty acids. The reaction mixture contains 0.01 M calcium chloride (20 μl), olive oil emulsion (2.5 ml) and crude enzyme (1 ml). The reaction mixture was continuously agitated by using a horizontal shaker at 200 rpm at 37° C. The reaction was stopped by adding isooctane (5 ml) to dissolve free fatty acids produced by olive oil hydrolysis. Lipase activity was determined by measuring the free fatty acids from the standard curve of free fatty acids. One unit of lipase activity was defined as 1.0 μmol of fatty acid liberated per min per ml.
After induction with IPTG (1 mM), 10 ml of cells were pelleted by centrifugation at 10,000 gram and resuspended in 10 ml of Phosphate buffer (PBS). The cells were mixed thoroughly, placed on ice, and sonicated with Branson sonicater (2 min, 30% duty cycle). The broken cells were pelleted and the supernantant were used in determining the lipase activity and organic solvent tolerant. Various organic solvents were tested at the concentration of 25% (v/v) by addition of 1 ml of organic solvent to 3 ml of crude enzyme. The reaction mixture was incubated for 30 minutes at 37° C. under shaking condition (200 rpm). Remaining activity was assayed under standard condition and expressed as the percent of the control value. For control, distilled water was added instead of solvent. The organic solvents used were hexane, ρ-xylene, benzene, dimethy sulfoxide, acetonitrile and hexadecane. Each experiment was done in triplicate.
Table 4: Effect of different organic solvents on crude recombinant lipase activity. Three milliliters of cell-free supernatant of the culture was incubated with 1 ml of organic solvents at 37° C. with shaking. The remaining lipase activity relative to the non-solvent containing control was measured.

[3] = cited from earlier work
[4] = system: lipase secreted by Bacillus sphaericus 205y; assay: Effect of organic solvents on crude lipase secreted by Bacillus sphaericus 205y; type: biochemical; conditions: 25% (v/v) solvent
Experimental: Lipase activity is measured with olive oil emulsion as substrate (Kwon and Rhee. 1991). All reactions were performed at 37° C. for 15 minutes at shaking condition of 200 rpm unless otherwise indicated. One unit of lipase activity was defined as 1.0 μmol of fatty acid liberated per min per ml.
Bacillus sphaericus 205y is grown at 37° C. in M3 medium. The culture medium (24 h) is […] (0.25 μm pore size) as crude enzyme. Investigation of various effects of organic solvents at the concentration of 25% (v/v) (1 ml of organic solvent/3 ml of crude enzyme) on the lipase activity was done. The reaction mixture was incubated for 30 minutes at 37° C. under shaking condition (200 rpm).

Row | Compound | Growth of isolate 205y ([1]; Hydrocarbon 1% (v/v)) | Growth of isolate 205y ([1]; Hydrocarbon 5% (v/v)) | Growth of isolate 205y ([1]; Hydrocarbon 10% (v/v)) | Growth of isolate 205y ([1]; Hydrocarbon 25% (v/v)) | Growth of isolate 205y ([1]; Hydrocarbon 50% (v/v)) | Growth of isolate 205y ([1]; Hydrocarbon 75% (v/v)) | Relative activity (%) at concentration of 25% [2] | Log P [3] | Stability of lipase secreted by Bacillus sphaericus 205y in solvent (in words) [4] | Effect on recombinant lipase activity (in words) ([2]; 25% (v/v) solvent) | Lipase activity enhanced (fold of control) ([2]; 25% (v/v) solvent) | Growth of 205y in solvent (in words) [1]
1 | c1ccccc1 [Benzene] | ++ | +++ | +++ | ++ | ++ | ++ | – | – | – | – | – | –
2 | CC#N [Acetonitrile] | – | – | – | – | – | – | 0% | – | – | – | – | –
3 | CCCCCC [n-Hexane] | – | – | – | – | – | – | 110% | 3.6 | stable | slightly activated | 1.10 folds | –
4 | Cc1ccccc1 [Toluene] | +++ | +++ | ++ | ++ | ++ | ++ | – | – | – | – | – | –
5 | C[S+](C)[O-] [Dimethyl sulfoxide] | – | – | – | – | – | – | 10% | −1.22 | – | – | – | –
6 | CCCCCCCCCCCCCCCC [Hexadecane] | – | – | – | – | – | – | 0% | – | – | completely inhibited | – | –
7 | Cc1ccc(C)cc1 [ρ-Xylene] | ++ | +++ | +++ | +++ | ++ | ++ | 90% | – | stable | – | – | good growth

Reference: patent publication US20050260737A1, “Novel lipase gene from Bacillus sphaericus 205y” (priority 2004, published 2005)
